This is an account of results in US20250087329A1, “PERSONALISED RECOMMENDED DAILY INTAKE FOR NUTRIENTS BASED ON INDIVIDUAL GENETIC RISK SCORES” (SOCIETE DES PRODUITS NESTLE S.A., priority 2021, published 2025).

Test in one data set: not given
The conditions noted are these: Person; daily intake; cited from earlier work.
As to `[Ca+2]` [Calcium], the “UL (tolerable upper intake level)” value is reported as 2500 mg.
Turning to `Cl` [Chloride], the “UL (tolerable upper intake level)” value is 3600 mg.
On to `C[N+](C)(C)CCO` [Choline], for which the “UL (tolerable upper intake level)” value is reported as 3500 mg.
As for `F` [Fluoride], the “UL (tolerable upper intake level)” value is given as 10 mg.
`[Mg+2]` [Magnesium]: the “UL (tolerable upper intake level)” value is 350 mg.
Turning to `[Mn+2]` [Manganese], the “UL (tolerable upper intake level)” value is 11 mg.
Take `O=C(O)c1cccnc1` [Niacin (B3), Niacin]: the “UL (tolerable upper intake level)” value was 35 mg.
As for `[P]` [Phosphorus], the “UL (tolerable upper intake level)” value was 4000 mg.
For `[Se]` [Selenium], the “UL (tolerable upper intake level)” value is 0.4 mg.
For the compound `[Na]` [Sodium], the “UL (tolerable upper intake level)” value is listed as 2300 mg.
On to `[Zn]` [Zinc], for which the “UL (tolerable upper intake level)” value is given as 40 mg.
Turning to `Cc1c(C)c2c(c(C)c1O)CC[C@@](C)(CCC[C@H](C)CCC[C@H](C)CCCC(C)C)O2` [α-tocopherol (Vitamin E), α-tocopherol], the “UL (tolerable upper intake level)” value is 1000 mg.

A further data set can be described thus: Dose-response algorithm for vitamin B12 including polygenic risk score effects (Arivale cohort). The note with it: 14-18 risk alleles vs 0-4 risk alleles. More on the design: species or system human. How it is done:
A linear regression was performed for the selected SNPs against vitamin B12 in the Arivale cohort. The Arivale cohort consists of individuals over 18 years of age who between 2015 and 2019 self-enrolled in a now closed scientific wellness company. Briefly, majority of Arivale participants (˜80%) were residents of Washington or California when in the program (for further information on the Arivale cohort see Wilmanski et al. 2021). Methyl-malonic acid (MMA) was measured as a biomarker for blood B12 concentrations. MMA is inversely correlated with vitamin B12 blood levels. The distribution of the PRS was normally distributed and the average increase in MMA per risk allele was 3.4 units (Table 5) corresponding to a decrease of approximately […] vitamin B12 (cobalamin) per risk allele.
To estimate individual vitamin B12 intake needs, a genetic term that sums the effects of all risk alleles present in an individual was added to the dose-response model in the form: […]
As to cobalamin [vitamin B12], the “intake needed by highest risk score group relative to low risk group to reach the same blood levels” value is listed as “five times”.

Still in this data set, the particulars now being: sufficiency for 97% of the high risk group.
Take cobalamin [vitamin B12]: the “daily vitamin B12 intake needed for vitamin B12 sufficiency” value is recorded as “higher than 1500 mcg/day”.
